# Laboratory results taken from PubChem BioAssay AID2060899 (Molecular Pharmacology Branch, DTP, NCI, 2025).
# Tested on: 565726-208-R1-J5-PDC complex spheroids, growth inhibition
# Assay: Anticancer human tumor 565726-208-R1-J5-PDC patient-derived pancreatic adenocarcinoma cell line growth inhibition [RAS]
# Details: for IC50: curve of first compound; for viability, T/C: stronger effect = lower value
# In short: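 Agents were tested in combination matrices in half-log decrements from a top concentration at or near clinical Cmax (10 microM if undetermined). Targets were multi-cell spheroids of tumour lines plus HUVEC and MSC stromal cells.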
# 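Note: spheroids exposed to compounds for seven days before readout.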
# 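Throughout, for viability, T/C: 100% = DMSO vehicle control viability.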
smiles,measurement,setting,value
NC1c2ccccc2OC12CCN(c1cnc3c(N4CCCc5ncccc54)n[nH]c3n1)CC2 (configuration not stated) + C#Cc1c(F)ccc2cc(O)cc(-c3ncc4c(N5CC6CCC(C5)N6)nc(OCC56CCCN5CC(F)C6)nc4c3F)c12,IC50,second compound 0.0316 µM,> 10 µM
same,IC50,second compound 0.1 µM,> 10 µM
same,IC50,second compound 0.316 µM,> 10 µM
same,IC50,second compound 1 µM,0.838 µM
same,IC50,second compound 3.16 µM,0.283 µM
same,IC50,second compound 10 µM,0.0882 µM
same,"viability, T/C","second compound 0.0316 µM, first compound 0.0316 µM",85.3%
same,"viability, T/C","second compound 0.0316 µM, first compound 0.1 µM",107%
same,"viability, T/C","second compound 0.0316 µM, first compound 0.316 µM",70.4%
same,"viability, T/C","second compound 0.0316 µM, first compound 1 µM",58.8%
same,"viability, T/C","second compound 0.0316 µM, first compound 3.16 µM",67.3%
same,"viability, T/C","second compound 0.0316 µM, first compound 10 µM",73.1%
same,"viability, T/C","second compound 0.1 µM, first compound 0.0316 µM",91.6%
same,"viability, T/C","second compound 0.1 µM, first compound 0.1 µM",101%
same,"viability, T/C","second compound 0.1 µM, first compound 0.316 µM",74.4%
same,"viability, T/C","second compound 0.1 µM, first compound 1 µM",58.1%
same,"viability, T/C","second compound 0.1 µM, first compound 3.16 µM",64.7%
same,"viability, T/C","second compound 0.1 µM, first compound 10 µM",78.4%
same,"viability, T/C","second compound 0.316 µM, first compound 0.0316 µM",104%
same,"viability, T/C","second compound 0.316 µM, first compound 0.1 µM",105%
same,"viability, T/C","second compound 0.316 µM, first compound 0.316 µM",62%
same,"viability, T/C","second compound 0.316 µM, first compound 1 µM",51.2%
same,"viability, T/C","second compound 0.316 µM, first compound 3.16 µM",56.2%
same,"viability, T/C","second compound 0.316 µM, first compound 10 µM",57.4%
same,"viability, T/C","second compound 1 µM, first compound 0.0316 µM",97.9%
same,"viability, T/C","second compound 1 µM, first compound 0.1 µM",88.2%
same,"viability, T/C","second compound 1 µM, first compound 0.316 µM",53.3%
same,"viability, T/C","second compound 1 µM, first compound 1 µM",46.4%
same,"viability, T/C","second compound 1 µM, first compound 3.16 µM",50.3%
same,"viability, T/C","second compound 1 µM, first compound 10 µM",51.3%
same,"viability, T/C","second compound 3.16 µM, first compound 0.0316 µM",82.6%
same,"viability, T/C","second compound 3.16 µM, first compound 0.1 µM",75.3%
same,"viability, T/C","second compound 3.16 µM, first compound 0.316 µM",47.5%
same,"viability, T/C","second compound 3.16 µM, first compound 1 µM",36.4%
same,"viability, T/C","second compound 3.16 µM, first compound 3.16 µM",32.6%
same,"viability, T/C","second compound 3.16 µM, first compound 10 µM",40.4%
same,"viability, T/C","second compound 10 µM, first compound 0.0316 µM",63%
same,"viability, T/C","second compound 10 µM, first compound 0.1 µM",48.4%
same,"viability, T/C","second compound 10 µM, first compound 0.316 µM",29.6%
same,"viability, T/C","second compound 10 µM, first compound 1 µM",28.9%
same,"viability, T/C","second compound 10 µM, first compound 3.16 µM",28%
same,"viability, T/C","second compound 10 µM, first compound 10 µM",25.8%
